{"source": "patent US9156872B2", "about": "“2′-azido substituted nucleoside derivatives and methods of use thereof for the treatment of viral diseases” (priority 2011, dated 2015)", "data": [{"system": "HCV replicon cells", "experiment": "Cell-based HCV replicon assay (replicon RNA by Taqman real time PCR)", "settings": "HCV replicon 1b, cells harvested on day 3; read-out: 1b EC50", "units": {"EC50": "nM"}, "values": [{"smiles": "CC(C)OP1(=O)OC[C@H]2O[C@@H](n3ccc(=O)[nH]c3=O)[C@](C)(N=[N+]=[N-])[C@@H]2O1", "note": "(single isomer, unassigned) [Compound 563]", "EC50": "> 100000"}, {"smiles": "C[C@@]1(N=[N+]=[N-])[C@@H]2OP(=O)(OC3CCCC3)OC[C@H]2O[C@H]1n1ccc(=O)[nH]c1=O", "note": "(single isomer, unassigned) [Compound 562]", "EC50": 400}]}, {"system": "HCV replicon cells", "experiment": "Cell-based HCV replicon assay (replicon RNA by Taqman real time PCR)", "settings": "Hepatitis C virus, 72 h, HCV replicon 1b, cells harvested on day 3; read-out: 1b EC50", "units": {"EC50": "nM"}, "values": [{"smiles": "CC(=O)Nc1ccn([C@@H]2O[C@H](CO)[C@@H](O)[C@@]2(C)N=[N+]=[N-])c(=O)n1", "note": "[Compound 2]", "EC50": 75000}, {"smiles": "C[C@@]1(N=[N+]=[N-])[C@H](O)[C@@H](CO)O[C@H]1n1cnc2c(=O)[nH]c(N)nc21", "note": "[Compound 17]", "EC50": "> 100000"}, {"smiles": "C[C@@]1(N=[N+]=[N-])[C@H](O)[C@@H](CO)O[C@H]1n1cnc2c(NC3CC3)nc(N)nc21", "note": "[Compound 138]", "EC50": "> 100000"}]}, {"system": "HCV replicon cells", "experiment": "Cell-based HCV replicon assay (replicon RNA by Taqman real time PCR)", "settings": "Hepatitis C virus, 72 h, read-out: 1b EC50", "units": {"EC50": "nM"}, "values": [{"smiles": "COc1nc(N)nc2c1ncn2[C@@H]1O[C@H](COP(=O)(N[C@@H](C)C(=O)OCC(C)(C)C)Oc2ccccc2)[C@@H](O)[C@@]1(C)N=[N+]=[N-]", "note": "(some centres unmarked) [Compound 55]", "EC50": 1100}, {"smiles": "CCOc1nc(N)nc2c1ncn2[C@@H]1O[C@H](COP(=O)(N[C@@H](C)C(=O)OC(C)C)Oc2ccccc2)[C@@H](O)[C@@]1(C)N=[N+]=[N-]", "note": "(some centres unmarked) [Compound 20]", "EC50": 1000}, {"smiles": "COC(=O)[C@H](C)NP(=O)(OC[C@H]1O[C@@H](n2cnc3c(NC4CC4)nc(N)nc32)[C@](C)(N=[N+]=[N-])[C@@H]1O)Oc1ccccc1", "note": "(some centres unmarked) [Compound 386]", "EC50": 5300}, {"smiles": "CC(C)OC(=O)[C@H](C)NP(=O)(OC[C@H]1O[C@@H](n2ccc(=O)[nH]c2=O)[C@](C)(N=[N+]=[N-])[C@@H]1O)Oc1ccc(Cl)c(Cl)c1", "note": "(some centres unmarked) [Compound 92]", "EC50": 7600}, {"smiles": "CCOC(=O)[C@H](C)NP(=O)(OC[C@H]1O[C@@H](n2cnc3c(OCC)nc(N)nc32)[C@](C)(N=[N+]=[N-])[C@@H]1O)Oc1ccc(Cl)cc1", "note": "(some centres unmarked) [Compound 71]", "EC50": 600}, {"smiles": "CCOc1nc(N)nc2c1ncn2[C@@H]1O[C@H](COP(=O)(N[C@@H](C)C(=O)OC)Oc2ccc(Cl)c(Cl)c2)[C@@H](O)[C@@]1(C)N=[N+]=[N-]", "note": "(some centres unmarked) [Compound 308]", "EC50": 2100}, {"smiles": "COC(=O)[C@H](C)NP(=O)(OC[C@H]1O[C@@H](n2cnc3c(OC)nc(N)nc32)[C@](C)(N=[N+]=[N-])[C@@H]1O)Oc1cccc2ccccc12", "note": "(some centres unmarked) [Compound 57]", "EC50": 400}, {"smiles": "CCOC(=O)[C@H](C)NP(=O)(OC[C@H]1O[C@@H](n2cnc3c(OCC)nc(N)nc32)[C@](C)(N=[N+]=[N-])[C@@H]1O)Oc1ccc(Cl)cc1", "note": "(single isomer, unassigned) [Compound 352]", "EC50": 1100}, {"smiles": "CCOC(=O)[C@H](C)NP(=O)(OC[C@H]1O[C@@H](n2cnc3c(OCC)nc(N)nc32)[C@](C)(N=[N+]=[N-])[C@@H]1O)Oc1ccccc1", "note": "(some centres unmarked) [Compound 10]", "EC50": 900}, {"smiles": "CCCCOC(=O)[C@H](C)NP(=O)(OC[C@H]1O[C@@H](n2ccc(N)nc2=O)[C@](C)(N=[N+]=[N-])[C@@H]1O)Oc1ccccc1", "note": "(some centres unmarked) [Compound 31]", "EC50": 4900}, {"smiles": "CCOc1nc(N)nc2c1ncn2[C@@H]1O[C@H](COP(=O)(N[C@@H](C)C(=O)OC(C)C)Oc2ccccc2Cl)[C@@H](O)[C@@]1(C)N=[N+]=[N-]", "note": "(some centres unmarked) [Compound 59]", "EC50": 10000}, {"smiles": "CCOC(=O)c1cccc(OP(=O)(N[C@@H](C)C(=O)OC)OC[C@H]2O[C@@H](n3cnc4c(OC)nc(N)nc43)[C@](C)(N=[N+]=[N-])[C@@H]2O)c1", "note": "(some centres unmarked) [Compound 221]", "EC50": 800}, {"smiles": "COc1nc(N)nc2c1ncn2[C@@H]1O[C@H](COP(=O)(N[C@@H](C)C(=O)OCC(C)C)Oc2ccccc2)C(O)[C@@]1(C)N=[N+]=[N-]", "note": "(single isomer, unassigned) [Compound 276]", "EC50": 2700}, {"smiles": "CC(C)OC(=O)[C@H](C)NP(=O)(OC[C@H]1O[C@@H](n2ccc(=O)[nH]c2=O)[C@](C)(N=[N+]=[N-])[C@@H]1O)Oc1ccccc1Cl", "note": "(some centres unmarked) [Compound 39]", "EC50": 49000}, {"smiles": "CCOC(=O)c1ccccc1OP(=O)(N[C@@H](C)C(=O)OC)OC[C@H]1O[C@@H](n2cnc3c(OC)nc(N)nc32)[C@](C)(N=[N+]=[N-])[C@@H]1O", "note": "(some centres unmarked) [Compound 224]", "EC50": 3300}, {"smiles": "COC(=O)[C@H](C)NP(=O)(OC[C@H]1O[C@@H](n2ccc(N)nc2=O)[C@](C)(N=[N+]=[N-])[C@@H]1O)Oc1ccc(F)cc1", "note": "(some centres unmarked) [Compound 36]", "EC50": 40000}, {"smiles": "COC(=O)[C@H](C)NP(=O)(OC[C@H]1O[C@@H](n2cnc3c(OC)nc(N)nc32)[C@](C)(N=[N+]=[N-])[C@@H]1O)Oc1ccccc1Cl", "note": "(some centres unmarked) [Compound 77]", "EC50": 600}, {"smiles": "COc1nc(N)nc2c1ncn2[C@@H]1O[C@H](COP(=O)(N[C@@H](C)C(=O)OCC(C)C)Oc2ccc(Cl)cc2)[C@@H](O)[C@@]1(C)N=[N+]=[N-]", "note": "(single isomer, unassigned) [Compound 295]", "EC50": 200}, {"smiles": "CCCOC(=O)[C@H](C)NP(=O)(OC[C@H]1O[C@@H](n2ccc(=O)[nH]c2=O)[C@](C)(N=[N+]=[N-])[C@@H]1O)Oc1ccccc1", "note": "(some centres unmarked) [Compound 28]", "EC50": 2300}, {"smiles": "C[C@H](NP(=O)(OC[C@H]1O[C@@H](n2ccc(=O)[nH]c2=O)[C@](C)(N=[N+]=[N-])[C@@H]1O)Oc1ccccc1)C(=O)OCC(C)(C)C", "note": "(some centres unmarked) [Compound 16]", "EC50": 1000}, {"smiles": "CCOC(=O)[C@H](C)NP(=O)(OC[C@H]1O[C@@H](n2ccc(N)nc2=O)[C@](C)(N=[N+]=[N-])[C@@H]1O)Oc1ccccc1", "note": "(some centres unmarked) [Compound 13]", "EC50": 6400}, {"smiles": "COC(=O)[C@H](C)NP(=O)(OC[C@H]1O[C@@H](n2ccc(N)nc2=O)[C@](C)(N=[N+]=[N-])[C@@H]1O)Oc1cccc2ccccc12", "note": "(some centres unmarked) [Compound 47]", "EC50": 400}, {"smiles": "C[C@H](NP(=O)(OC[C@H]1O[C@@H](n2ccc(N)nc2=O)[C@](C)(N=[N+]=[N-])[C@@H]1O)Oc1ccc(F)cc1)C(=O)OC1CCCCC1", "note": "(some centres unmarked) [Compound 197]", "EC50": 400}, {"smiles": "CCCCOC(=O)[C@H](C)NP(=O)(OC[C@H]1O[C@@H](n2ccc(=O)[nH]c2=O)[C@](C)(N=[N+]=[N-])[C@@H]1O)Oc1ccc(Cl)c(Cl)c1", "note": "(some centres unmarked) [Compound 372]", "EC50": 6000}]}, {"system": "HCV replicon cells", "experiment": "Cell-based HCV replicon assay (replicon RNA by Taqman real time PCR)", "settings": "read-out: 1b EC50", "units": {"EC50": "nM"}, "values": [{"smiles": "CCOC(=O)[C@H](C)NP(=O)(OC[C@H]1O[C@@H](n2ccc(N)nc2=O)[C@](C)(N=[N+]=[N-])[C@@H]1O)Oc1ccc(Cl)cc1", "note": "(single isomer, unassigned) [Compound 189]", "EC50": 22000}, {"smiles": "CCOC(=O)[C@H](C)NP(=O)(OC[C@H]1O[C@@H](n2cnc3c(OC)nc(N)nc32)[C@](C)(N=[N+]=[N-])[C@@H]1O)Oc1ccc(F)cc1", "note": "(single isomer, unassigned) [Compound 270]", "EC50": 1800}, {"smiles": "CC(C)COC(=O)[C@H](C)NP(=O)(OC[C@H]1O[C@@H](n2ccc(=O)[nH]c2=O)[C@](C)(N=[N+]=[N-])[C@@H]1O)Oc1ccccc1", "note": "(single isomer, unassigned) [Compound 210]", "EC50": 3300}, {"smiles": "C[C@H](NP(=O)(OC[C@H]1O[C@@H](n2ccc(=O)[nH]c2=O)[C@](C)(N=[N+]=[N-])[C@@H]1O)Oc1ccc(F)cc1)C(=O)OC1CCCCC1", "note": "(single isomer, unassigned) [Compound 233]", "EC50": 2100}, {"smiles": "COC(=O)[C@H](C)NP(=O)(OC[C@H]1O[C@@H](n2ccc(N)nc2=O)[C@](C)(N=[N+]=[N-])[C@@H]1O)Oc1ccc(Cl)c(Cl)c1", "note": "(single isomer, unassigned) [Compound 194]", "EC50": 35000}, {"smiles": "C[C@H](NP(=O)(OC[C@H]1O[C@@H](n2ccc(N)nc2=O)[C@](C)(N=[N+]=[N-])[C@@H]1O)Oc1ccc(Cl)cc1)C(=O)OC1CCCCC1", "note": "(single isomer, unassigned) [Compound 340]", "EC50": 20000}, {"smiles": "CCOC(=O)[C@H](C)NP(=O)(OC[C@H]1O[C@@H](n2ccc(=O)[nH]c2=O)[C@](C)(N=[N+]=[N-])[C@@H]1O)Oc1ccc(Cl)cc1", "note": "(some centres unmarked) [Compound 323]", "EC50": 5300}, {"smiles": "CCCOC(=O)[C@H](C)NP(=O)(OC[C@H]1O[C@@H](n2cnc3c(OCC)nc(N)nc32)[C@](C)(N=[N+]=[N-])[C@@H]1O)Oc1ccccc1", "note": "(single isomer, unassigned) [Compound 164]", "EC50": 1000}, {"smiles": "CCOC(=O)c1cccc(OP(=O)(N[C@@H](C)C(=O)OC)OC[C@H]2O[C@@H](n3ccc(=O)[nH]c3=O)[C@](C)(N=[N+]=[N-])[C@@H]2O)c1", "note": "(single isomer, unassigned) [Compound 214]", "EC50": 12000}, {"smiles": "COc1nc(N)nc2c1ncn2[C@@H]1O[C@H](COP(=O)(N[C@@H](C)C(=O)OC2CCCCC2)Oc2ccccc2)[C@@H](O)[C@@]1(C)N=[N+]=[N-]", "note": "(single isomer, unassigned) [Compound 275]", "EC50": 1500}, {"smiles": "COc1nc(N)nc2c1ncn2[C@@H]1O[C@H](COP(=O)(N[C@@H](C)C(=O)OC(C)C)Oc2ccc(Cl)cc2)[C@@H](O)[C@@]1(C)N=[N+]=[N-]", "note": "(single isomer, unassigned) [Compound 294]", "EC50": 3400}, {"smiles": "COc1nc(N)nc2c1ncn2[C@@H]1O[C@H](COP(=O)(N[C@@H](C)C(=O)OC2CCCCC2)Oc2ccccc2)[C@@H](O)[C@@]1(C)N=[N+]=[N-]", "note": "(single isomer, unassigned) [Compound 274]", "EC50": 8700}, {"smiles": "CC(C)OC(=O)[C@H](C)NP(=O)(OC[C@H]1O[C@@H](n2ccc(N)nc2=O)[C@](C)(N=[N+]=[N-])[C@@H]1O)Oc1ccccc1Cl", "note": "(single isomer, unassigned) [Compound 203]", "EC50": 20000}, {"smiles": "CCOc1nc(N)nc2c1ncn2[C@@H]1O[C@H](COP(=O)(N[C@@H](C)C(=O)OC2CCCCC2)Oc2ccc(Cl)cc2)[C@@H](O)[C@@]1(C)N=[N+]=[N-]", "note": "(single isomer, unassigned) [Compound 314]", "EC50": 1300}, {"smiles": "COC(=O)[C@H](C)NP(=O)(OC[C@H]1O[C@@H](n2ccc(=O)[nH]c2=O)[C@](C)(N=[N+]=[N-])[C@@H]1O)Oc1ccc(Cl)cc1", "note": "(single isomer, unassigned) [Compound 326]", "EC50": 500}, {"smiles": "COc1nc(N)nc2c1ncn2[C@@H]1O[C@H](COP(=O)(N[C@@H](C)C(=O)OCc2ccccc2)Oc2ccccc2)[C@@H](O)[C@@]1(C)N=[N+]=[N-]", "note": "(single isomer, unassigned) [Compound 279]", "EC50": 1000}, {"smiles": "CCOC(=O)c1ccccc1OP(=O)(N[C@@H](C)C(=O)OC)OC[C@H]1O[C@@H](n2ccc(=O)[nH]c2=O)[C@](C)(N=[N+]=[N-])[C@@H]1O", "note": "(single isomer, unassigned) [Compound 225]", "EC50": 2800}, {"smiles": "C[C@H](NP(=O)(OC[C@H]1O[C@@H](n2ccc(N)nc2=O)[C@](C)(N=[N+]=[N-])[C@@H]1O)Oc1ccccc1Cl)C(=O)OCC(C)(C)C", "note": "(single isomer, unassigned) [Compound 182]", "EC50": 12000}]}]}
